In the experiment the test system is LTD4 evoked ileal contractions. Kind of experiment: LTD4 antagonism: inhibition of LTD4 evoked ileal contractions (isolated guinea pig ileum). The arrangement: species or system guinea pig (male, Hartley). The note with it: for -log IC50: 50% inhibition of LTD4 responses, interpolated by linear regression from 2-4 concentrations; for Percent inhibition of LTD4 evoked ileal contractions: isolated ileum, five minute exposure. The protocol: Male, Hartley guinea pigs weighing 200-450 grams were killed by decapitation. A section of terminal ileum was removed, the lumen cleaned, and the tissue divided into 2.5 cm. segments. The ilea were mounted in 10 ml. tissue baths containing Krebs-bicarbonate solution of the following composition in mmoles/liter: KCl, 4.6; CaCl2.2H2 O, 1.2; KH2 PO4, 1.2; MgSO4.7H2 O, 1.2; NaCl, 118.2; NaHCO3, 24.8; and dextrose, 10.0. The bath fluid was maintained at 37° C. and aerated with 95 percent oxygen and 5 percent CO2. In addition, the buffer contained 1×10^-6 M atropine to reduce ileal spontaneous activity. Isometric measurements were made with a Grass FTO3C force-displacement transducer and recorded on a Grass polygraph as change in grams of force. A passive force of 0.5 g. was applied to the tissues. After an appropriate equilibration period, single submaximal control responses to pure LTD4 were obtained. Following a five minute exposure of the ileum to an experimental drug, the control concentration of LTD4 was added to the tissue bath. The response of the ileum to LTD4 in the presence of the drug was compared to the response in the absence of the drug. Various degrees of LTD4 antagonism were obtained using 2-4 different concentrations of an experimental compound on a single ileum.

The mark [1] stands for this setting: compound concentration 3 × 10^-7 M.
Where [2] appears, read: compound concentration 3 × 10^-8 M.
Where [3] appears, read: compound concentration 3 × 10^-9 M.
The mark [4] stands for this setting: compound concentration 1 × 10^-8 M.
[5] abbreviates: compound concentration 1 × 10^-7 M.

The structures appear in SMILES notation.

Take `CCCc1c(COc2ccc(C(=O)c3cccc(-c4nnn[nH]4)c3)cc2)ccc(C(C)=O)c1O` [Example 1, 1-[2-Hydroxy-3-propyl-4-({4-[3-(1H-tetrazol-5-yl)benzoyl]phenoxy}methyl)phenyl]ethanone]: the “-log IC50” value is on record as 8.58. The “Percent inhibition of LTD4 evoked ileal contractions” value (shortened to “Percent inhibition”) (compound concentration 1 × 10^-9) is 21%. Moreover, the “Percent inhibition” value under setting [1] came out at 98%. Also, the “Percent inhibition” value under setting [2] turned out to be 80%. Further, the “Percent inhibition” value under setting [3] came out at 53%.

Take `CCCc1c(COc2ccc(C(=O)c3ccc(-c4nnn[nH]4)cc3)cc2)ccc(C(C)=O)c1O` [Example 2, 1-[2-Hydroxy-3-propyl-4-({4-[4-(1H-tetrazol-5-yl)-benzoyl]phenoxy}methyl)phenyl]ethanone]: the “-log IC50” value worked out at 8.29. In addition, the “Percent inhibition” value under setting [4] was 72%. Further, the “Percent inhibition” value under setting [3] stood at 32%.

Take `CCCc1c(COc2ccc(C(O)c3cccc(-c4nnn[nH]4)c3)cc2)ccc(C(C)=O)c1O` (stereo not shown) [Example 3, 1-{2-Hydroxy-4-[(4-{hydroxy[3-(1H-tetrazol-5-yl)-phenyl]methyl}phenoxy)methyl]-3-propylphenyl}ethanone]: the “-log IC50” value amounted to 7.89. Also, the “Percent inhibition” value under setting [5] came out at 81%. For the same compound, the “Percent inhibition” value under setting [4] amounted to 40%. Also, the “Percent inhibition” value under setting [2] was 75%.

Take `CCCc1c(COc2ccc(Oc3ccc(-c4nnn[nH]4)cc3)cc2)ccc(C(C)=O)c1O` [Example 4, 1-[2-Hydroxy-3-propyl-4-({4-[4-(1H-tetrazol-5-yl)-phenoxy]phenoxy}methyl)phenyl]ethanone]: the “-log IC50” value came out at 7.08. Further, under setting [5], the “Percent inhibition” value worked out at 53%. The “Percent inhibition” value under setting [1] came out at 80%. Moreover, the “Percent inhibition” value under setting [2] is listed as 25%.

Source of the values: patent publication US4853398A, “Leukotriene antagonists and use thereas” (Eli Lilly and Company, priority 1987, dated 1989).
